{
  "source": "paper PMC5218480",
  "about": "(PLoS ONE, 2017)",
  "test_system": "MV-4-11 cells",
  "experiment": "Gene expression microarray analysis (Affymetrix PrimeView) and GSEA",
  "format": "cell-based, human",
  "parameters": "RFU PODN (11730768_x_at) / Fold change /veh PODN (11730768_x_at) / RFU LINC00158 (11744669_a_at) / Fold change /veh LINC00158 (11744669_a_at) / RFU DUSP10 (11751237_a_at) / Fold change /veh DUSP10 (11751237_a_at) / RFU ID3 (11757404_x_at) / Fold change /veh ID3 (11757404_x_at) / RFU PLEKHG5 (11737974_s_at) / Fold change /veh PLEKHG5 (11737974_s_at) / RFU LRRC4B (11730491_at) / Fold change /veh LRRC4B (11730491_at) / RFU GIMAP4 (11747438_a_at) / Fold change /veh GIMAP4 (11747438_a_at) / RFU KRT8 (11758183_x_at) / Fold change /veh KRT8 (11758183_x_at) / RFU CNN1 (11734310_a_at) / Fold change /veh CNN1 (11734310_a_at) / RFU VPS37D (11726825_at) / Fold change /veh VPS37D (11726825_at) / RFU C10orf10 (11716522_x_at) / Fold change /veh C10orf10 (11716522_x_at) / RFU KIR2DL2 /// KIR2DL4 /// KIR2DL5A /// KIR2DL5B /// KIR2DS1 /// KIR2DS2 /// KIR2DS3 /// KIR2DS4 /// KIR3DL3 /// KIR3DL3 /// KIR3DS1 (11738374_at) / Fold change /veh KIR2DL2 /// KIR2DL4 /// KIR2DL5A /// KIR2DL5B /// KIR2DS1 /// KIR2DS2 /// KIR2DS3 /// KIR2DS4 /// KIR3DL3 /// KIR3DL3 /// KIR3DS1 (11738374_at) / RFU C1QL1 (11718748_at) / Fold change /veh C1QL1 (11718748_at) / RFU TMPRSS4 (11747572_a_at) / Fold change /veh TMPRSS4 (11747572_a_at) / RFU HAMP (11756126_x_at) / Fold change /veh HAMP (11756126_x_at) / RFU RNFT2 (11725882_a_at) / Fold change /veh RNFT2 (11725882_a_at) / RFU NR4A2 (11747474_a_at) / Fold change /veh NR4A2 (11747474_a_at) / RFU ABCC12 (11746883_a_at) / Fold change /veh ABCC12 (11746883_a_at) / RFU TMEM136 (11760407_x_at) / Fold change /veh TMEM136 (11760407_x_at) / RFU CLDN22 /// WWC2 (11732394_at) / Fold change /veh CLDN22 /// WWC2 (11732394_at) / RFU HLA-DPB1 (11760878_x_at) / Fold change /veh HLA-DPB1 (11760878_x_at) / RFU SPINT1 (11716480_a_at) / Fold change /veh SPINT1 (11716480_a_at) / RFU GAP43 (11754022_s_at) / Fold change /veh GAP43 (11754022_s_at) / RFU A4GNT (11735810_at) / Fold change /veh A4GNT (11735810_at) / RFU PRB3 (11715151_x_at) / Fold change /veh PRB3 (11715151_x_at) / RFU TUBB4B (11761932_at) / Fold change /veh TUBB4B (11761932_at) / RFU CAPN14 (11732068_a_at) / Fold change /veh CAPN14 (11732068_a_at) / RFU TMCC2 (11721928_a_at) / Fold change /veh TMCC2 (11721928_a_at) / RFU IRGQ (11745062_a_at) / Fold change /veh IRGQ (11745062_a_at) / RFU FAM174B (11720279_a_at) / Fold change /veh FAM174B (11720279_a_at) / RFU TMPRSS4 (11748680_a_at) / Fold change /veh TMPRSS4 (11748680_a_at) / RFU FAM212B (11763350_a_at) / Fold change /veh FAM212B (11763350_a_at) / RFU PLEKHG5 (11743358_a_at) / Fold change /veh PLEKHG5 (11743358_a_at) / RFU ZSCAN30 (11745921_a_at) / Fold change /veh ZSCAN30 (11745921_a_at) / RFU CMKLR1 (11741424_a_at) / Fold change /veh CMKLR1 (11741424_a_at) / RFU LOC101060620 /// MAPK8IP1 (11723275_at) / Fold change /veh LOC101060620 /// MAPK8IP1 (11723275_at) / RFU SPTSSB (11747773_x_at) / Fold change /veh SPTSSB (11747773_x_at) / RFU PRSS12 (11739890_at) / Fold change /veh PRSS12 (11739890_at) / RFU BIN1 (11741810_x_at) / Fold change /veh BIN1 (11741810_x_at) / RFU WNT11 (11732464_a_at) / Fold change /veh WNT11 (11732464_a_at) / RFU C10orf10 (11716521_a_at) / Fold change /veh C10orf10 (11716521_a_at) / RFU C5orf56 (11738089_at) / Fold change /veh C5orf56 (11738089_at) / RFU CYB561 (11721691_x_at) / Fold change /veh CYB561 (11721691_x_at) / RFU ANKRD19P (11752326_a_at) / Fold change /veh ANKRD19P (11752326_a_at) / RFU OR2T12 /// OR2T33 /// OR2T8 (11738714_s_at) / Fold change /veh OR2T12 /// OR2T33 /// OR2T8 (11738714_s_at) / RFU VCAN (11748164_a_at) / Fold change /veh VCAN (11748164_a_at) / RFU JSRP1 (11732532_at) / Fold change /veh JSRP1 (11732532_at) / RFU KRTAP10-11 (11738290_x_at) / Fold change /veh KRTAP10-11 (11738290_x_at) / RFU MYO3A (11730013_a_at) / Fold change /veh MYO3A (11730013_a_at) / RFU EBF3 (11725865_a_at) / Fold change /veh EBF3 (11725865_a_at) / RFU CAMK2N1 (11719241_x_at) / Fold change /veh CAMK2N1 (11719241_x_at) / RFU C5orf56 (11738088_a_at) / Fold change /veh C5orf56 (11738088_a_at) / RFU OLFML3 (11715873_a_at) / Fold change /veh OLFML3 (11715873_a_at) / RFU LOC100653217 /// NTM (11731650_a_at) / Fold change /veh LOC100653217 /// NTM (11731650_a_at) / RFU MAPK11 (11762145_a_at) / Fold change /veh MAPK11 (11762145_a_at) / RFU FIZ1 (11724087_x_at) / Fold change /veh FIZ1 (11724087_x_at) / RFU OASL (11726364_x_at) / Fold change /veh OASL (11726364_x_at) / RFU SOX15 (11748057_x_at) / Fold change /veh SOX15 (11748057_x_at) / RFU CD79A (11719716_a_at) / Fold change /veh CD79A (11719716_a_at) / RFU HIST1H1D (11736915_at) / Fold change /veh HIST1H1D (11736915_at) / RFU CASKIN2 (11723855_a_at) / Fold change /veh CASKIN2 (11723855_a_at) / RFU LOC730098 (11760151_x_at) / Fold change /veh LOC730098 (11760151_x_at) / RFU OR4N2 (11742367_at) / Fold change /veh OR4N2 (11742367_at) / RFU PRRT2 (11749266_a_at) / Fold change /veh PRRT2 (11749266_a_at) / RFU SNX32 (11753110_a_at) / Fold change /veh SNX32 (11753110_a_at) / RFU CDHR5 (11726645_a_at) / Fold change /veh CDHR5 (11726645_a_at) / RFU RCAN1 (11760418_a_at) / Fold change /veh RCAN1 (11760418_a_at) / RFU FAM167A (11723789_a_at) / Fold change /veh FAM167A (11723789_a_at) / RFU FAM26E (11764081_at) / Fold change /veh FAM26E (11764081_at) / RFU ISYNA1 (11749810_s_at) / Fold change /veh ISYNA1 (11749810_s_at) / RFU ACY1 (11761880_at) / Fold change /veh ACY1 (11761880_at) / RFU 11764098_at / Fold change /veh 11764098_at / RFU SAMD14 (11745864_x_at) / Fold change /veh SAMD14 (11745864_x_at) / RFU NPB (11741838_a_at) / Fold change /veh NPB (11741838_a_at) / RFU TMPRSS6 (11731388_a_at) / Fold change /veh TMPRSS6 (11731388_a_at) / RFU KRTAP10-2 (11738614_at) / Fold change /veh KRTAP10-2 (11738614_at) / RFU ARHGAP8 /// PRR5-ARHGAP8 (11727945_x_at) / Fold change /veh ARHGAP8 /// PRR5-ARHGAP8 (11727945_x_at) / RFU KRTAP5-7 /// NADSYN1 (11734609_at) / Fold change /veh KRTAP5-7 /// NADSYN1 (11734609_at) / RFU RASL12 (11751679_a_at) / Fold change /veh RASL12 (11751679_a_at) / RFU CDKN2B (11736163_a_at) / Fold change /veh CDKN2B (11736163_a_at) / RFU PRF1 (11729649_at) / Fold change /veh PRF1 (11729649_at) / RFU, ZNF638 /// ZNF638-IT1 / Fold change vs veh, ZNF638 /// ZNF638-IT1 / RFU, PANK3 / Fold change vs veh, PANK3 / RFU, SH3YL1 / Fold change vs veh, SH3YL1 / RFU, ZEB2 / Fold change vs veh, ZEB2 / RFU, NRIP1 / Fold change vs veh, NRIP1 / RFU, PTTG1IP / Fold change vs veh, PTTG1IP / RFU, CAPN2 / Fold change vs veh, CAPN2 / RFU, MED14 / Fold change vs veh, MED14 / RFU, SNORA58 / Fold change vs veh, SNORA58 / RFU, C1orf63 / Fold change vs veh, C1orf63 / RFU, LRRFIP1 / Fold change vs veh, LRRFIP1 / RFU, NDUFAF7 / Fold change vs veh, NDUFAF7 / RFU, SLC12A2 / Fold change vs veh, SLC12A2 / RFU, IBTK / Fold change vs veh, IBTK / RFU, ESF1 / Fold change vs veh, ESF1 / Fold change vs veh, TMEM50B / RFU, TAOK1 / Fold change vs veh, TAOK1 / RFU, ACBD3 / Fold change vs veh, ACBD3 / RFU, TMA16 / Fold change vs veh, TMA16 / RFU, RWDD3 / Fold change vs veh, RWDD3 / RFU, BCAT1 / Fold change vs veh, BCAT1 / RFU, EDEM3 / Fold change vs veh, EDEM3 / RFU, TMEM33 / Fold change vs veh, TMEM33 / RFU, WDR75 / Fold change vs veh, WDR75 / RFU, AHCTF1 / Fold change vs veh, AHCTF1 / RFU, TFRC / Fold change vs veh, TFRC / RFU, ZDHHC17 / Fold change vs veh, ZDHHC17 / RFU, NOM1 / Fold change vs veh, NOM1 / RFU, ARL8B / Fold change vs veh, ARL8B / RFU, ZBTB11 / Fold change vs veh, ZBTB11 / RFU, TAMM41 / Fold change vs veh, TAMM41 / RFU, KIAA1704 /// LOC100996395 / Fold change vs veh, KIAA1704 /// LOC100996395 / RFU, ING1 / Fold change vs veh, ING1 / RFU, TRMT61B / Fold change vs veh, TRMT61B / RFU, FUBP3 / Fold change vs veh, FUBP3 / RFU, TP53 / Fold change vs veh, TP53 / RFU, TNKS2 / Fold change vs veh, TNKS2 / RFU, ZFP14 / Fold change vs veh, ZFP14 / RFU, ACTR2 / Fold change vs veh, ACTR2 / RFU, PPP3R1 / Fold change vs veh, PPP3R1 / RFU, PIK3R1 / Fold change vs veh, PIK3R1 / RFU, HNRNPA1 / Fold change vs veh, HNRNPA1 / RFU, RNF170 / Fold change vs veh, RNF170 / RFU, ZNF28 / Fold change vs veh, ZNF28 / RFU, RNGTT / Fold change vs veh, RNGTT / RFU, OGT / Fold change vs veh, OGT / RFU, BRD1 / Fold change vs veh, BRD1 / RFU, MARS / Fold change vs veh, MARS / RFU, ZNF655 / Fold change vs veh, ZNF655 / RFU, FAHD1 / Fold change vs veh, FAHD1 / RFU, BDP1 / Fold change vs veh, BDP1 / RFU, LRRCC1 / Fold change vs veh, LRRCC1 / RFU, ARID1A / Fold change vs veh, ARID1A / RFU, ZNF146 / Fold change vs veh, ZNF146 / RFU, ZNF330 / Fold change vs veh, ZNF330 / RFU, GPN3 / Fold change vs veh, GPN3 / RFU, C9orf123 / Fold change vs veh, C9orf123 / RFU, N4BP2L2 / Fold change vs veh, N4BP2L2 / RFU, ARFIP1 / Fold change vs veh, ARFIP1 / RFU, FAM179B / Fold change vs veh, FAM179B / RFU, BCL10 / Fold change vs veh, BCL10 / RFU, UHRF1BP1L / Fold change vs veh, UHRF1BP1L / RFU, BET1 / Fold change vs veh, BET1 / RFU, CNOT2 / Fold change vs veh, CNOT2 / RFU, ZNF268 / Fold change vs veh, ZNF268 / Fold change vs veh, ZNF507 / RFU, DGCR2 / Fold change vs veh, DGCR2 / RFU, WDSUB1 / Fold change vs veh, WDSUB1 / Fold change vs veh, HSP90B1 /// MIR3652 / RFU, ADSS / Fold change vs veh, ADSS / RFU, GK / Fold change vs veh, GK / RFU, ZNF148 / Fold change vs veh, ZNF148 / RFU, TAF9 / Fold change vs veh, TAF9 / RFU, SLC1A5 / Fold change vs veh, SLC1A5 / RFU, SLMO2 / Fold change vs veh, SLMO2 / RFU, ABCC4 / Fold change vs veh, ABCC4 / RFU, LOC101060439 /// RAP1B / Fold change vs veh, LOC101060439 /// RAP1B / RFU, RFX7 / Fold change vs veh, RFX7 / RFU, GTPBP10 / Fold change vs veh, GTPBP10 / RFU, CNEP1R1 / Fold change vs veh, CNEP1R1 / RFU, BIVM-ERCC5 /// ERCC5 / Fold change vs veh, BIVM-ERCC5 /// ERCC5 / RFU, ILF3 / Fold change vs veh, ILF3 / RFU 11762660_at / Fold change /veh 11762660_at / RFU VCAN (11757783_s_at) / Fold change /veh VCAN (11757783_s_at) / RFU DDX43 (11728927_at) / Fold change /veh DDX43 (11728927_at) / RFU KRT8 (11758188_x_at) / Fold change /veh KRT8 (11758188_x_at) / RFU NKD1 (11759106_at) / Fold change /veh NKD1 (11759106_at) / RFU SRD5A1 (11742802_a_at) / Fold change /veh SRD5A1 (11742802_a_at) / RFU TPSAB1 /// TPSB2 (11721975_s_at) / Fold change /veh TPSAB1 /// TPSB2 (11721975_s_at) / RFU GSTM3 (11746129_a_at) / Fold change /veh GSTM3 (11746129_a_at) / RFU IL23R (11737362_x_at) / Fold change /veh IL23R (11737362_x_at) / RFU TMEM51 (11727254_a_at) / Fold change /veh TMEM51 (11727254_a_at) / RFU PIWIL2 (11732686_x_at) / Fold change /veh PIWIL2 (11732686_x_at) / RFU ORM1 (11744905_x_at) / Fold change /veh ORM1 (11744905_x_at) / RFU CCDC152 (11743942_at) / Fold change /veh CCDC152 (11743942_at) / RFU ECM1 (11717891_a_at) / Fold change /veh ECM1 (11717891_a_at) / RFU IL23R (11748794_a_at) / Fold change /veh IL23R (11748794_a_at) / RFU TNFAIP8L3 (11732012_x_at) / Fold change /veh TNFAIP8L3 (11732012_x_at) / RFU MBOAT4 (11741988_at) / Fold change /veh MBOAT4 (11741988_at) / RFU 11764193_at / Fold change /veh 11764193_at / RFU TMEM53 (11763286_at) / Fold change /veh TMEM53 (11763286_at) / RFU MAGEB2 (11727129_at) / Fold change /veh MAGEB2 (11727129_at) / RFU TMEM200A (11744735_a_at) / Fold change /veh TMEM200A (11744735_a_at) / RFU CCDC152 (11751479_a_at) / Fold change /veh CCDC152 (11751479_a_at) / RFU FAM211A (11726209_a_at) / Fold change /veh FAM211A (11726209_a_at) / RFU RGS16 (11746705_a_at) / Fold change /veh RGS16 (11746705_a_at) / RFU VCAN (11755009_s_at) / Fold change /veh VCAN (11755009_s_at) / RFU RHOB (11743442_s_at) / Fold change /veh RHOB (11743442_s_at) / RFU RGS16 (11720943_a_at) / Fold change /veh RGS16 (11720943_a_at) / RFU RGS16 (11720944_at) / Fold change /veh RGS16 (11720944_at) / RFU, VPS4B / Fold change vs veh, VPS4B / RFU, CREB1 / Fold change vs veh, CREB1 / RFU, DNAJC13 / Fold change vs veh, DNAJC13 / RFU, GNAQ / Fold change vs veh, GNAQ / RFU, CDK5R1 / Fold change vs veh, CDK5R1 / RFU, ZRANB3 / Fold change vs veh, ZRANB3 / RFU, CUL4A / Fold change vs veh, CUL4A / RFU, CCNY / Fold change vs veh, CCNY / RFU, UFL1 / Fold change vs veh, UFL1 / RFU, COG3 / Fold change vs veh, COG3 / RFU, DIAPH2 / Fold change vs veh, DIAPH2 / RFU, SKA2 / Fold change vs veh, SKA2 / RFU, AFF3 / Fold change vs veh, AFF3 / RFU, LMF1 / Fold change vs veh, LMF1 / RFU, IPO11 / Fold change vs veh, IPO11 / RFU, DFFB / Fold change vs veh, DFFB / RFU, FOXP1 / Fold change vs veh, FOXP1 / RFU, CARD8 / Fold change vs veh, CARD8 / RFU, STRN3 / Fold change vs veh, STRN3 / RFU, ADK / Fold change vs veh, ADK / RFU, RASSF2 / Fold change vs veh, RASSF2 / RFU, WIPF1 / Fold change vs veh, WIPF1 / RFU, LARP1B / Fold change vs veh, LARP1B / RFU, RASA1 / Fold change vs veh, RASA1 / RFU, RB1 / Fold change vs veh, RB1 / RFU, PPFIA1 / Fold change vs veh, PPFIA1 / RFU, MAT2A / Fold change vs veh, MAT2A / RFU, CCT5 / Fold change vs veh, CCT5 / RFU, WDR92 / Fold change vs veh, WDR92 / RFU, CUX1 / Fold change vs veh, CUX1 / RFU, TTC7A / Fold change vs veh, TTC7A / RFU, TMEM135 / Fold change vs veh, TMEM135 / RFU, DEPTOR / Fold change vs veh, DEPTOR / RFU, CPM / Fold change vs veh, CPM / RFU, DNAJB6 / Fold change vs veh, DNAJB6 / RFU, CACNA2D3 / Fold change vs veh, CACNA2D3 / RFU, DTX4 / Fold change vs veh, DTX4 / RFU, TFCP2 / Fold change vs veh, TFCP2 / RFU, GMCL1 /// GMCL1P1 / Fold change vs veh, GMCL1 /// GMCL1P1 / RFU, AEBP2 / Fold change vs veh, AEBP2 / RFU, SNHG1 /// SNORD22 /// SNORD25 /// SNORD26 /// SNORD27 /// SNORD28 /// SNORD29 /// SNORD31 / Fold change vs veh, SNHG1 /// SNORD22 /// SNORD25 /// SNORD26 /// SNORD27 /// SNORD28 /// SNORD29 /// SNORD31 / Fold change (Aza/veh), C12orf56 (ProbeSet 11735607_a_at) / Fold change (ACY-1035/veh), C12orf56 (ProbeSet 11735607_a_at) / Fold change (Aza/veh), FGFR1OP (ProbeSet 11751329_s_at) / Fold change (ACY-1035/veh), FGFR1OP (ProbeSet 11751329_s_at) / Fold change (Aza/veh), VPS36 (ProbeSet 11739960_a_at) / Fold change (ACY-1035/veh), VPS36 (ProbeSet 11739960_a_at) / RFU SYPL1 (11715823_x_at) / Fold change /veh SYPL1 (11715823_x_at) / RFU IGFBP7 (11715501_s_at) / Fold change /veh IGFBP7 (11715501_s_at) / RFU REEP3 (11722064_at) / Fold change /veh REEP3 (11722064_at) / RFU IGLL1 (11728026_x_at) / Fold change /veh IGLL1 (11728026_x_at): dose or concentration left out as unconfirmed",
  "details": "ProbeSet 11726661_s_at; LIST B",
  "data": [
    {"smiles": "Nc1ncn([C@@H]2O[C@H](CO)[C@@H](O)[C@H]2O)c(=O)n1", "note": "[azacitidine]", "values": [
      {"measurement": "RFU, GPN3", "value": 248.57, "unit": "RFU"}
    ]}
  ]
}
